According to patent US11919902B2, “Aryl-bipyridine amine derivatives as phosphatidylinositol phosphate kinase inhibitors” (HiberCell, Inc., priority 2017, dated 2024):

Experiments:
GST tagged PIP4KtypeIIA = target: T1, GST tagged PIP4KtypeIIA (Homo sapiens, UniProt P48426); experiment: ADP-glo kinase assay PIP4K 2A (PIP4KtypeIIA inhibition assay); type: biochemical; conditions: Table 3; compounds listed under IC50 range headings; 10 uM ATP, 0.5 nM PIP4KIIA
T1 construct: made in house; host or cells: E. coli
T1 sequence (P48426 1-406): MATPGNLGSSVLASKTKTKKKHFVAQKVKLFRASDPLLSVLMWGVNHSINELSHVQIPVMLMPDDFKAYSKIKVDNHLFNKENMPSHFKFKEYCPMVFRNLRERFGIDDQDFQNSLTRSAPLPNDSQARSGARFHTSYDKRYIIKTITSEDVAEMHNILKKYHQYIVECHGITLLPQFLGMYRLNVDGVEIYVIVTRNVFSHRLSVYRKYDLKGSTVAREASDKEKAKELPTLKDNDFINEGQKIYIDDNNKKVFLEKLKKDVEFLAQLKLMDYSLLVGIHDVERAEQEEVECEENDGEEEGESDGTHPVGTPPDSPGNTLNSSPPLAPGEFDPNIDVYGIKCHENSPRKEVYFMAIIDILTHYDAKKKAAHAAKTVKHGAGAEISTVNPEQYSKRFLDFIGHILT
Outline: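 E. coli-expressed GST-PIP4KtypeIIA (0.5 nM final) was preincubated 1 h at 27 °C with compound (up to 4.8 μM, 5% DMSO) in PI5P/DOPE lipid in 50 mM HEPES pH 7.3 with 10 mM MgCl2. The reaction was started with 10 μM ATP (final) and run 1 h. ADP was read by ADP-Glo luminescence via a calibration curve, and IC50 was taken from % residual activity.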

[1] = target: T2, PIP4K2A (full length protein, SignalChem) (Homo sapiens, UniProt P48426); experiment: Kinase Assay PIP4K2 A (Sprint); ADP-Glo biochemical assay; conditions: Table 2; compounds listed under IC50 range headings
T2 construct: 4 nM PIP4K2A (full length protein, SignalChem); purchased SignalChem
T2 sequence (P48426 1-406): T1 sequence (P48426 1-406)
Outline: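 Compounds (10-point, 3-fold dilutions) were pre-incubated 15 min at RT with an enzyme/substrate mix of 4 nM full-length PIP4K2A and 100 μM PI(5)P diC8 in 20 mM MOPS pH 7.2, 25 mM MgCl2, 0.005% Tween 20. A 60 μM ATP solution was added, reaction 1 h RT; ADP read by ADP-Glo luminescence, IC50 fitted from % inhibition vs DMSO.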

GST tagged PIP4KtypeIIB = target: T3, GST tagged PIP4KtypeIIB (Homo sapiens, UniProt P78356); experiment: Trans-FI P kinase assay PIP4K2B (PIP4KtypeIIB inhibition assay); type: biochemical; conditions: Table 4; compounds listed under IC50 range headings; 100 uM GTP, 5 nM PIP4KIIB; read-out: Trans-FI P kinase assays: PIP4K2B IC50
T3 construct: made in house; host or cells: E. coli
T3 sequence (P78356 1-416): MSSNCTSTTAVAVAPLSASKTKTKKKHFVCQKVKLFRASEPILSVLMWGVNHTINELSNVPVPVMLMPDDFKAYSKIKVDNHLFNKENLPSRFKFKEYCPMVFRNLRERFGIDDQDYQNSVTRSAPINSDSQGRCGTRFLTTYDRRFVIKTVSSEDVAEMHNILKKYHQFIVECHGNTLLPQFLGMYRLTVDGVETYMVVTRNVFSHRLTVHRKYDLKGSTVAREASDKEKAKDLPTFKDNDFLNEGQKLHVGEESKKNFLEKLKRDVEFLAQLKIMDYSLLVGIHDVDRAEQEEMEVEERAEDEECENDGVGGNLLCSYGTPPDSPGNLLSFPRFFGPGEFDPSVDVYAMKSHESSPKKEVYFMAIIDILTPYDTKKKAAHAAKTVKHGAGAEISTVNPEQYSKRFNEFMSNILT
Outline: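 Purified GST-PIP4KIIB (5 nM final), 1 h preincubation with compound at 27 C, then 2 h reaction with 100 uM GTP and 80 uM PI5P plus DOPE carrier lipid in pH 7.3 HEPES/MgCl2/Triton buffer with 5% DMSO. GDP read by Transcreener FI fluorescence against a calibration curve; IC50 from % no-inhibitor activity vs log concentration.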

Compound | IC50 (GST tagged PIP4KtypeIIA) [nM] | IC50 [1] [nM] | IC50 (GST tagged PIP4KtypeIIB) [nM]
O=C1CCCN1c1ccc(-c2cncc(-c3c(OC4CCCNC4)cnc4[nH]ccc34)c2)cc1 (stereo not drawn) [Example 66, 1-(4-(5-(5-(piperidin-3-yloxy)-1H-pyrrolo[2,3-b]pyridin-4-yl)pyridin-3-yl)phenyl)pyrrolidin-2-one] | > 5000 | < 5000 | > 5000
O=C1CCCN1c1ccc(-c2cncc(-c3cn(Cc4ccccc4)c(=O)c4[nH]ncc34)c2)cc1 [Example 67, 6-benzyl-4-(5-(4-(2-oxopyrrolidin-1-yl)phenyl)pyridin-3-yl)-1,6-dihydro-7H-pyrazolo[3,4-c]pyridin-7-one] | 100 to 1000 | 5 to 100 | 100 to 1000
CC(C)Cn1cc(-c2cncc(-c3ccc(N4CCCC4=O)cc3)c2)c2cn[nH]c2c1=O [Example 68, 6-isobutyl-4-(5-(4-(2-oxopyrrolidin-1-yl)phenyl)pyridin-3-yl)-1,6-dihydro-7H-pyrazolo[3,4-c]pyridin-7-one] | 10 to 100 | 5 to 100 | 10 to 100
O=C1CCCN1c1ccc(-c2cncc(-c3cn(CC4CCOCC4)c(=O)c4[nH]ncc34)c2)cc1 [Example 69, 4-(5-(4-(2-oxopyrrolidin-1-yl)phenyl)pyridin-3-yl)-6-((tetrahydro-2H-pyran-4-yl)methyl)-1,6-dihydro-7H-pyrazolo[3,4-c]pyridin-7-one] | 1000 to 2500 | 5 to 100 | 100 to 1000
Cn1ncc2c(-c3cncc(-c4ccc(N5CCCC5=O)cc4)c3)cn(CC3CCOCC3)c(=O)c21 [Example 70, 1-methyl-4-(5-(4-(2-oxopyrrolidin-1-yl)phenyl)pyridin-3-yl)-6-((tetrahydro-2H-pyran-4-yl)methyl)-1,6-dihydro-7H-pyrazolo[3,4-c]pyridin-7-one] | 100 to 1000 | 5 to 100 | 100 to 1000
CNC(=O)c1cnc2[nH]cc(-c3cncc(-c4ccc(N5CCCC5=O)cc4)c3)c2c1 [Example 71, N-methyl-3-(5-(4-(2-oxopyrrolidin-1-yl)phenyl)pyridin-3-yl)-1H-pyrrolo[2,3-b]pyridine-5-carboxamide] | 100 to 1000 | 5 to 100 | 10 to 100
CN(C)C(=O)c1cnc2[nH]cc(-c3cncc(-c4ccc(N5CCCC5=O)cc4)c3)c2c1 [Example 72, N,N-dimethyl-3-(5-(4-(2-oxopyrrolidin-1-yl)phenyl)pyridin-3-yl)-1H-pyrrolo[2,3-b]pyridine-5-carboxamide] | 100 to 1000 | 5 to 100 | 100 to 1000
O=C1CCCN1c1ccc(-c2cncc(-c3c[nH]c(=O)c4[nH]ncc34)c2)cc1 [Example 74, 4-(5-(4-(2-oxopyrrolidin-1-yl)phenyl)pyridin-3-yl)-1,6-dihydro-7H-pyrazolo[3,4-c]pyridin-7-one] | 100 to 1000 | 5 to 100 | 100 to 1000
CN1C(=O)Cc2c(-c3cncc(-c4ccc(N5CCCC5=O)cc4)c3)ccnc21 [Example 76, 1-methyl-4-(5-(4-(2-oxopyrrolidin-1-yl)phenyl)pyridin-3-yl)-1,3-dihydro-2H-pyrrolo[2,3-b]pyridin-2-one] | 2500 to 5000 | 100 to 1000 | 1000 to 2500
Cn1cc(-c2cncc(-c3ccc(N4CCCC4=O)cc3)c2)c2cc(N3CCCC3=O)cnc21 [Example 77, 1-(1-methyl-3-(5-(4-(2-oxopyrrolidin-1-yl)phenyl)pyridin-3-yl)-1H-pyrrolo[2,3-b]pyridin-5-yl)pyrrolidin-2-one] | 100 to 1000 | 5 to 100 | 100 to 1000
O=C1NCc2c(-c3cncc(-c4ccc(N5CCCC5=O)cc4)c3)ccnc21 [Example 78, 4-[5-[4-(2-Oxopyrrolidin-1-yl)phenyl]-3-pyridyl]-5,6-dihydropyrrolo[3,4-b]pyridin-7-one] | 100 to 1000 | 5 to 100 | 100 to 1000
O=C(NCC1CC1)c1cc2c(-c3cncc(-c4ccc(N5CCCC5=O)cc4)c3)ccnc2o1 [Example 79, N-(cyclopropylmethyl)-4-(5-(4-(2-oxopyrrolidin-1-yl)phenyl)pyridin-3-yl)furo[2,3-b]pyridine-2-carboxamide] | 10 to 100 | 5 to 100 | 10 to 100
COCCNC(=O)c1cc2c(-c3cncc(-c4ccc(N5CCCC5=O)cc4)c3)ccnc2o1 [Example 80, N-(2-methoxyethyl)-4-(5-(4-(2-oxopyrrolidin-1-yl)phenyl)pyridin-3-yl)furo[2,3-b]pyridine-2-carboxamide] | 100 to 1000 | 5 to 100 | 10 to 100
Nc1ncc(-c2ccncc2)cc1-c1ccc(N2CCCC2=O)cc1 [Example 84, 1-(4-(6-amino-[3,4′-bipyridin]-5-yl)phenyl)pyrrolidin-2-one] | 100 to 1000 | 100 to 1000 | 100 to 1000
CNC(=O)c1cc2c(-c3cnc(N)c(-c4ccc(N5CCCC5=O)cc4)c3)ccnc2o1 [Example 85, 4-(6-amino-5-(4-(2-oxopyrrolidin-1-yl)phenyl)pyridin-3-yl)-N-methylfuro[2,3-b]pyridine-2-carboxamide] | 10 to 100 | 1 to 5 | 1 to 10
Cn1cc(-c2cnc(N)c(-c3ccc(N4CCCC4=O)cc3)c2)c2cccnc21 [Example 87, 1-(4-(2-amino-5-(1-methyl-1H-pyrrolo[2,3-b]pyridin-3-yl)pyridin-3-yl)phenyl)pyrrolidin-2-one] | 100 to 1000 | 5 to 100 | 100 to 1000
Nc1ncc(-c2ccnc3c2cc2n3CCN(CC3CC3)C2=O)cc1-c1ccc(N2CCCC2=O)cc1 [Example 88, 4-(6-amino-5-(4-(2-oxopyrrolidin-1-yl)phenyl)pyridin-3-yl)-7-(cyclopropylmethyl)-8,9-dihydropyrido[3′,2′:4,5]pyrrolo[1,2-a]pyrazin-6(7H)-one] | 10 to 100 | 5 to 100 | 1 to 10
Nc1ncc(-c2ccnc3oc(C(=O)NCC4CC4)cc23)cc1-c1ccc(N2CCCC2=O)cc1 [Example 89, 4-(6-amino-5-(4-(2-oxopyrrolidin-1-yl)phenyl)pyridin-3-yl)-N-(cyclopropylmethyl)furo[2,3-b]pyridine-2-carboxamide] | 1 to 10 | 1 to 5 | 1 to 10
COCCNC(=O)c1cc2c(-c3cnc(N)c(-c4ccc(N5CCCC5=O)cc4)c3)ccnc2o1 [Example 90, 4-(6-amino-5-(4-(2-oxopyrrolidin-1-yl)phenyl)pyridin-3-yl)-N-(2-methoxyethyl)furo[2,3-b]pyridine-2-carboxamide] | 10 to 100 | 5 to 100 | 1 to 10
Cn1cc(-c2cnc(N)c(-c3ccc(N4CCCC4=O)cc3)c2)c2cc(N3CCCC3=O)cnc21 [Example 91, 1-(4-(2-amino-5-(1-methyl-5-(2-oxopyrrolidin-1-yl)-1H-pyrrolo[2,3-b]pyridin-3-yl)pyridin-3-yl)phenyl)pyrrolidin-2-one] | 100 to 1000 | 5 to 100 | 10 to 100
Cn1ncc2c(-c3cnc(N)c(-c4ccc(N5CCCC5=O)cc4)c3)cn(CC3CCOCC3)c(=O)c21 [Example 92, 4-(6-amino-5-(4-(2-oxopyrrolidin-1-yl)phenyl)pyridin-3-yl)-1-methyl-6-((tetrahydro-2H-pyran-4-yl)methyl)-1,6-dihydro-7H-pyrazolo[3,4-c]pyridin-7-one] | 10 to 100 | 5 to 100 | 10 to 100
CN(C)C(=O)c1ccc(-c2cc(-c3ccnc4cc(C#N)ccc34)cnc2N)nc1 [Example 109, 2′-amino-5′-(7-cyanoquinolin-4-yl)-N,N-dimethyl-[2,3′-bipyridine]-5-carboxamide] | 2500 to 5000 | 1000 to 2500 | 1000 to 2500
